Experimental data published in ChEMBL document CHEMBL5608252, “New Potent Sulfonamide-Based Inhibitors of S. aureus Biotin Protein Ligase” (ACS Med Chem Lett, 2024).
≈ marks a conversion by molar mass, not a printed value.

Columns and labels:
[1] = Inhibition of Staphylococcus aureus BPL assessed as inhibition constant by biotinylation assay
Staphylococcus aureus [2] = assay: Antibacterial activity against methicillin-resistant Staphylococcus aureus USA300 incubated for 16 to 20 hrs by CLSI based broth microdilution method; format: functional; conditions: time 16-20 hrs
Staphylococcus aureus [3] = assay: Antibacterial activity against methicillin-resistant Staphylococcus aureus […] incubated for 16 to 20 hrs by CLSI based broth microdilution method; format: functional; conditions: time 16-20 hrs
Staphylococcus aureus [4] = assay: Antibacterial activity against methicillin-susceptible Staphylococcus aureus ATCC 29213 incubated for 16 to 20 hrs by CLSI based broth microdilution method; format: functional; conditions: time 16-20 hrs
Staphylococcus aureus [5] = assay: Antibacterial activity against methicillin-susceptible Staphylococcus aureus ATCC 49775 incubated for 16 to 20 hrs by CLSI based broth microdilution method; format: functional; conditions: time 16-20 hrs

Nc1ncnc2c1ncn2CCCCNS(=O)(=O)NC(=O)CCCC[C@@H]1SC[C@@H]2NC(=O)N[C@@H]21 showed a Ki [1] of 7 nM.
Nc1ncnc2c1ncn2CCCCS(=O)(=O)NC(=O)OCCCCC[C@@H]1SC[C@@H]2NC(=O)N[C@@H]21 showed a Ki [1] of 10.3 nM, an MIC (Staphylococcus aureus [2]) greater than 256 µg/mL and an MIC (Staphylococcus aureus [3]) greater than 256 µg/mL. It also gave an MIC (Staphylococcus aureus [4]) greater than 256 µg/mL and an MIC (Staphylococcus aureus [5]) greater than 256 µg/mL.
Compound Nc1ncnc2c1ncn2CCCCNS(=O)(=O)NC(=O)NCCCC[C@@H]1SC[C@@H]2NC(=O)N[C@@H]21 has a Ki [1] of 65 nM.
In the case of Nc1ncnc2c1ncn2CCCNS(=O)(=O)NC(=O)OCCCCC[C@@H]1SC[C@@H]2NC(=O)N[C@@H]21, the Ki [1] is reported as 20.1 nM, the MIC (Staphylococcus aureus [2]) is reported as 32 µg/mL (≈ 60.6 µM) and the MIC (Staphylococcus aureus [3]) is reported as 16 µg/mL (≈ 30.3 µM). For the same compound, the MIC (Staphylococcus aureus [4]) was 32 µg/mL (≈ 60.6 µM) and the MIC (Staphylococcus aureus [5]) was 32 µg/mL (≈ 60.6 µM).
With Nc1ncnc2c1ncn2CCCCOS(=O)(=O)NC(=O)NCCCC[C@@H]1SC[C@@H]2NC(=O)N[C@@H]21 the Ki [1] was 35.3 nM, the MIC (Staphylococcus aureus [2]) was 32 µg/mL (≈ 60.6 µM) and the MIC (Staphylococcus aureus [3]) was 16 µg/mL (≈ 30.3 µM). The MIC (Staphylococcus aureus [4]) was 32 µg/mL (≈ 60.6 µM) and the MIC (Staphylococcus aureus [5]) was 32 µg/mL (≈ 60.6 µM).
Nc1ncnc2c1ncn2CCCCCS(=O)(=O)NC(=O)NCCCC[C@@H]1SC[C@@H]2NC(=O)N[C@@H]21 showed a Ki [1] of 57.2 nM, an MIC (Staphylococcus aureus [2]) of 16 µg/mL (≈ 30.4 µM) and an MIC (Staphylococcus aureus [3]) of 16 µg/mL (≈ 30.4 µM). It also gave an MIC (Staphylococcus aureus [4]) of 16 µg/mL (≈ 30.4 µM) and an MIC (Staphylococcus aureus [5]) of 16 µg/mL (≈ 30.4 µM).
